# From patent publication US10799597B2, “Subcutaneous administration of antibody-drug conjugates for cancer therapy” (Immunomedics, Inc., priority 2017, dated 2020)
# Key:
# [1] = test system: COLO 205 colonic adenocarcinoma xenografts
# [2] = test system: SK-MES-1 human squamous cell lung tumors; assay: Therapy of SK-MES-1 tumor xenografts in nude mice; settings: hA20 ADC equal dose; irinotecan at MTD (q2dx5)
# [3] = test system: Calu-3 non-small cell lung carcinoma xenografts; assay: Therapy of Calu-3 tumor xenografts in nude mice; type: in vivo, athymic nude mice; settings: 0.4 mg/kg SN-38 q4dx4
# Description: FIG. 4A. […] Mice bearing Calu-3 tumors (N=5-7) were injected with hRS7-CL2-SN-38 every 4 days for a total of 4 injections (q4dx4).
# FIG. 3A = assay: FIG. 3A
# Description: Table printed on a drawing sheet, FIG. 3A
# Footnotes: CL2-SN-38: AA = Phe / CL2A-SN-38: AA = None
# The patent's description of the figure: FIG. 3A. Structures of CL2-SN-38 and CL2A-SN-38.
# FIG. 3C. […] Capan-1 mice (N=10) were treated with 0.2 mg/kg ADC and tumors measured weekly.
# [4] = Pharmacokinetics of MAb vs. ADC (IMMU-130) in mice; type: in vivo
# Description: (§1) Experiments were conducted in female athymic nude mice, 4 weeks or older, bearing s.c. LS174T human colon carcinoma xenografts of (˜0.2 cm^3 size), or 2 weeks after lung metastases were generated by i.v. injection of GW-39 human colon carcinoma cells. Untreated controls, including a non-targeting ADC, were included. […] Tolerability studies were conducted in white New Zealand rabbits.
# [5] = test system: Capan-1 pancreatic adenocarcinoma xenografts; assay: Therapy of Capan-1 tumor xenografts in nude mice; type: in vivo, athymic nude mice; settings: 0.2 mg/kg SN-38 twice weekly×4 weeks
# Description: FIG. 3C. […] Animals were treated twice weekly for 4 weeks as indicated by the arrows. Capan-1 mice (N=10) were treated with 0.2 mg/kg ADC and tumors measured weekly.
# FIG. 4C. […] Capan-1 (N=10) were treated twice weekly for 4 weeks with the agents indicated.
# BxPC-3 = assay: Signaling events (p21Waf1/Cip1, p53) in BxPC-3 cells; type: cell-based, human
# Excerpt: (§2) SN-38 is known to activate several signaling pathways in cells, leading to apoptosis (e.g., Cusack et al., 2001, Cancer Res 61:3535-40; Liu et al. 2009, Cancer Lett 274:47-53; Lagadec et al., 2008, Br J Cancer 98:335-44). Our initial studies examined the expression of 2 proteins involved in early signaling events (p21^Waf1/Cip1 and p53) and 1 late apoptotic event [cleavage of poly-ADP-ribose polymerase (PARP)] in vitro (not shown).
# Calu-3 = assay: Signaling events (p21Waf1/Cip1, p53) in Calu-3 cells; type: cell-based, human
# Excerpt: as §2
# [6] = Body weight loss in the murine therapy studies; type: in vivo, mice; settings: all murine studies
# [7] = Tolerability in Cynomolgus monkeys; type: in vivo, Cynomolgus monkeys (Macaca fascicularis)
# Description: FIG. 5C. Tolerability of hRS7-CL2A-SN-38 in Cynomolgus monkeys. […] All animals were bled on day −1, 3, and 6. Four monkeys were bled on day 11 in the 0.96 mg/kg group, 3 in the 1.92 mg/kg group. Changes in neutrophil counts in Cynomolgus monkeys.
# FIG. 5D. Tolerability of hRS7-CL2A-SN-38 in Cynomolgus monkeys. […] All animals were bled on day −1, 3, and 6. Four monkeys were bled on day 11 in the 0.96 mg/kg group, 3 in the 1.92 mg/kg group. Changes in platelet counts in Cynomolgus monkeys.
# [8] = test system: diverse metastatic cancers; assay: Phase I/II clinical trial of IMMU-132 (Example 9): best response and TTP
# [9] = test system: GW-39 human colon carcinoma lung metastases; assay: IMMU-130 therapy of GW-39 lung metastases in nude mice; type: in vivo, athymic nude mice
# Description: as §1
# [10] = test system: LS174T human colon carcinoma xenografts; assay: IMMU-130 therapy of s.c. LS174T xenografts in nude mice; type: in vivo, athymic nude mice; settings: s.c. model
# Description: as §1
# [11] = Tolerability study of IMMU-130 in rabbits; type: in vivo, white New Zealand rabbits; settings: given as two doses
# Description: as §1
# metastatic colon cancer [12] = assay: Subcutaneous IMMU-130 in a patient with metastatic colon cancer (Example 11); type: in vivo, human; settings: s.c. 4 mg/kg 3 times weekly for 2 weeks, 3 cycles; CT 8 weeks from treatment begin
# Description: A person with metastatic colon cancer (3-5 cm diameters) to their left and right liver lobes, as well as a 5 cm metastasis to their right lung, and an elevated blood CEA value of 130 ng/mL, is treated with the anti-CEACAM-5 ADC IMMU-130 (hMN-14-CL2A-SN-38) administered subcutaneously at a dosage of 4 mg/kg, given 3 times weekly for 2 weeks, followed by rest, with 3 cycles of drug administration. […] Repeated courses of therapy continue as their neutropenia normalizes.
# [13] = test system: metastatic colonic cancer; assay: IMMU-130 in a patient with advanced colon cancer (Example 13); type: in vivo, human
# Excerpt: The patient is a person with a history of stage-IV metastatic colonic cancer, first diagnosed in 2008 and given a colectomy and partial hepatectomy for the primary and metastatic colonic cancers, respectively. […] In 2009, they received radiofrequency ablation therapy to their liver metastasis while under chemo-immunotherapy, and in late 2010 they underwent a wedge resection of their lung metastases, which was repeated a few months later, in early 2011. Despite having chemo-immunotherapy in 2011, new lung metastases appeared at the end of 2011, and in 2012, both lung and liver metastases were visualized. Their baseline plasma carcinoembryonic antigen (CEA) titer was 12.5 ng/mL just before undergoing the antibody-drug therapy with IMMU-130. The index lesions chosen by the radiologist for measuring tumor size change by computed tomography were the mid-lobe of the right lung and the liver metastases, both totaling 91 mm as the sum of their longest diameters at the baseline prior to IMMU-130 (anti-CEACAM5-SN-38) therapy.
# This patient received doses of 10 mg/kg of IMMU-130 by slow IV infusion every other week for a total of 17 treatment doses. The patient tolerated the therapy well, having only a grade 1 nausea, diarrhea and fatigue after the first treatment, which occurred after treatments 4 and 5, but not therafter, because they received medication for these side-effects. After treatment 3, they did show alopecia (grade 2), which was present during the subsequent therapy. The nausea, diarrhea, and occasional vomiting lasted only 2-3 days, and their fatigue after the first infusion lasted 2 weeks. Otherwise, the patient tolerated the therapy well.
# [14] = test system: gastric adenocarcinoma metastases; assay: I.V. and S.C. IMMU-130 in a gastric cancer patient (Example 15); type: in vivo, human
# Excerpt: Their fourth infusion is postponed by one week, and then the weekly infusions are reinstituted, with no evidence of diarrhea or neutropenia for the next 4 injection. The patient then undergoes a CT study to measure their metastatic tumor sizes and to view the original area of gastric resection. The radiologist measures, according to RECIST criteria, a decrease of the sum of the metastatic lesions, compared to baseline prior to IMMU-130 therapy, of 23%. […] The patient's general condition improves and they resume their usual activities while continuing to receive a maintenance therapy of 3 mg/kg administered twice-weekly subcutaneously of IMMU-130 every six weeks for another 4 courses of therapy. At the last measurement of blood CEA, the value is 4.8 ng/mL, which is within the normal range for a smoker, which is the case for this patient.
# metastatic colon cancer [15] = assay: S.C. hMN-14-SN-38 ADC in advanced metastatic colon cancer (Example 16); type: in vivo, human; settings: 2 mg/kg S.C. twice-weekly every other week, 3-month CT evaluation
# Description: The hMN-14-SN-38 ADC is administered at a dosage of 2 mg/kg S.C., twice-weekly, which is repeated every other week for 4 months.
# [16] = Drug release from the linker in IMMU-130
# MDA-MB-468 = assay: MTS cytotoxicity assay, MDA-MB-468; type: cell-based, human; settings: Example 5, 96 h
# [17] = esophageal cancer, 4 assessable patients
compound,measurement,setting,value
"CCc1c2c(nc3ccc(OC(=O)N4CCC(N5CCCCC5)CC4)cc13)-c1cc3c(c(=O)n1C2)COC(=O)[C@]3(O)CC [irinotecan, reference compound]",effectiveness of the MTD of irinotecan,"[1]; 24 mg SN-38/kg, q2dx5",as effective as hRS7-CL2-SN-38
same,antitumor effect relative to the specific conjugate,[2],provided the same antitumor effects as the specific hRS7-SN-38 conjugate
hLL2-CL2-SN-38 [reference compound],tumor outcome,[3],tumors regrew
hRS7-CL2-SN-38 [listing 1 of 2 here],HUMAN SERUM HALF-LIFE,FIG. 3A,22.1 h
labetuzumab,half-life longer for MAb vs. ADC,[4],~25%
hRS7-CL2-SN-38 [listing 2 of 2 here],tumor growth vs. saline and hA20-CL2A-SN-38,[5],significantly inhibited tumor growth
same,mice tumor-free at the end of the study,[5]; day 140,40%
same,time by which all mice were cured,[3],≤ 28 days
same,tumor outcome,[3],remained tumor-free until the end of the study on day 147
same,tumor growth vs. saline and hA20-CL2A-SN-38,[1]; 0.4 mg/kg SN-38 twice weekly×4 weeks,significantly inhibited tumor growth
hRS7 IgG,time of p53 upregulation,BxPC-3,48 h
same,time of p53 upregulation,Calu-3,48 h
hRS7-SN-38,tolerability in terms of body weight loss,[6],well tolerated
same,tolerated cumulative human equivalent dose,"[7]; cynomolgus monkey, in vivo",22 mg/m^2
same,tolerated dose,[7]; mild and reversible toxicity,0.96 mg/kg/dose
same,extrapolated human dose,[7]; per dose,~11 mg/m^2
same,reduction in target lesions,"[8]; CRC patient, 8 mg/kg, first CT assessment",37%
same,maximum reduction in target lesions,"[8]; CRC patient, after 10 months of treatment",65%
same,"Best Response: PD, number of patients","[8]; CRC, 18 assessable patients",6
same,"Best Response: PR, number of patients","[8]; CRC, 18 assessable patients",1
same,"Best Response: SD, number of patients","[8]; CRC, 18 assessable patients",11
same,"Best Response: PD, number of patients","[8]; NSCLC, 5 assessable patients",1
same,"Best Response: PR, number of patients","[8]; NSCLC, 5 assessable patients",1
same,"Best Response: SD, number of patients","[8]; NSCLC, 5 assessable patients",3
same,"Best Response: PD, number of patients","[8]; SCLC, 4 assessable patients",2
same,"Best Response: PR, number of patients","[8]; SCLC, 4 assessable patients",2
same,"Best Response: SD, number of patients","[8]; SCLC, 4 assessable patients",0
same,"Best Response: PD, number of patients","[8]; TNBC, 8 assessable patients",2
same,"Best Response: PR, number of patients","[8]; TNBC, 8 assessable patients",2
same,"Best Response: SD, number of patients","[8]; TNBC, 8 assessable patients",4
same,"Best Response: PD, number of patients","[8]; all patients, 48 assessable",14
same,"Best Response: PR, number of patients","[8]; all patients, 48 assessable",7
same,"Best Response: SD, number of patients","[8]; all patients, 48 assessable",27
same,"Best Response: PD, number of patients",[8]; [17],1
same,"Best Response: PR, number of patients",[8]; [17],1
same,"Best Response: SD, number of patients",[8]; [17],2
"IMMU-130: CEACAM5-targeted ADC, labetuzumab-SN-38, substituted at 7-8 moles/mole of IgG",effect of pre-dosing with labetuzumab on median survival,"[9]; pre-dose up to twice the ADC dose, n=10",did not affect median survival
same,median survival vs. untreated mice,"[9]; total 50 mg/kg ADC, 2 cycles of 21 days, twice-weekly×2 weeks and once weekly×2 weeks schedules",doubled median survival
same,efficacy vs. the conjugate with an ultrastable linker,[10]; n=5,superior
same,efficacy of combination with bevacizumab,"[10]; n=8-10, P<0.031",improved efficacy
same,efficacy vs. an MTD of 5 FU/leucovorin chemotherapy,"[10]; n=10, P<0.0001",better
same,"NOAEL, human equivalent dose",[11],40 to 60 mg/kg
same,reduction of the total mean diameters of the 3 target lesions,metastatic colon cancer [12],25%
same,"grade of nausea, diarrhea and fatigue",[13]; 10 mg/kg IV,1
same,change in index lesions from baseline (CT),"[13]; 10 mg/kg IV every other week, after 4 treatments",28.6%
same,reduction in index lesions from baseline (CT),[13]; after 8 treatments,40.6%
same,anti-labetuzumab antibody in blood,[13]; after 16 doses,none was detected
same,plasma CEA titer,"[13]; after the third therapy dose, baseline 12.6 ng/mL",2.1 ng/mL
same,grade of alopecia,[13]; after treatment 3,2
same,index lesions less than baseline (CT),[13]; another 2 months later,31.9%
same,decrease of the sum of the metastatic lesions (RECIST),"[14]; 8 mg/kg I.V. weekly, first CT study",23%
same,grade of diarrhea,[14]; after 3 weeks of 8 mg/kg I.V.,1
same,grade of neutropenia,[14]; after 3 weeks of 8 mg/kg I.V.,2
same,decrease of the sum of all metastatic lesions,[14]; after a total of 13 infusions of 8.0 mg/kg I.V.,41%
same,CEA titer,"[14]; at first CT study, baseline 14.5 ng/mL",7.2 ng/mL
same,blood CEA,"[14]; last measurement, s.c. maintenance 3 mg/kg twice-weekly",4.8 ng/mL
same,response by RECIST criteria,metastatic colon cancer [15],partial response
same,time for liberating 50% of drug,[16],~20 h
CC(=O)O[C@H]1C(=O)[C@@]2(C)[C@H]([C@H](OC(=O)c3ccccc3)[C@]3(O)C[C@H](OC(=O)[C@H](O)[C@@H](NC(=O)c4ccccc4)c4ccccc4)C(C)=C1C3(C)C)[C@]1(OC(C)=O)CO[C@@H]1C[C@@H]2O [paclitaxel],IC50,"MDA-MB-468; Homo sapiens, MDA-MB-468",< 0.061 nM
hRS7-CL2A-SN-38,HUMAN SERUM HALF-LIFE,FIG. 3A,20.3 h
"CCc1c2c(nc3ccc(O)cc13)-c1cc3c(c(=O)n1C2)COC(=O)[C@]3(O)CC [SN-38, reference compound]",time of p53 upregulation,BxPC-3,48 h
same,time of p53 upregulation,Calu-3,48 h
same,IC50,MDA-MB-468,1.54 nM
